From US10221182B2, “3,3-difluoro-piperidine derivatives as NR2B NMDA receptor antagonists” (Rugen Holdings (Cayman) Limited, priority 2015, dated 2019)
Read-outs that look alike come from different tables or passages of the source.

How the values were obtained:
hERG channel = hERG channel (Homo sapiens (Human), UniProt Q12809); assay: hERG channel inhibition, whole cell patch clamp in HEK293 cells; settings: for hERG @ 10 μM: inhibition at 10 μM
human NR1/NR2B = human NR1/NR2B (Homo sapiens (Human), UniProt Q05586+Q13224); assay: NR2B antagonist activity, Fluo-4 calcium influx assay in HEK293 cells; assay type: cell-based; settings: glutamate 100 μM, glycine 50 μM
Chain of human NR1/NR2B (Q13224 27-1484, other chains not shown): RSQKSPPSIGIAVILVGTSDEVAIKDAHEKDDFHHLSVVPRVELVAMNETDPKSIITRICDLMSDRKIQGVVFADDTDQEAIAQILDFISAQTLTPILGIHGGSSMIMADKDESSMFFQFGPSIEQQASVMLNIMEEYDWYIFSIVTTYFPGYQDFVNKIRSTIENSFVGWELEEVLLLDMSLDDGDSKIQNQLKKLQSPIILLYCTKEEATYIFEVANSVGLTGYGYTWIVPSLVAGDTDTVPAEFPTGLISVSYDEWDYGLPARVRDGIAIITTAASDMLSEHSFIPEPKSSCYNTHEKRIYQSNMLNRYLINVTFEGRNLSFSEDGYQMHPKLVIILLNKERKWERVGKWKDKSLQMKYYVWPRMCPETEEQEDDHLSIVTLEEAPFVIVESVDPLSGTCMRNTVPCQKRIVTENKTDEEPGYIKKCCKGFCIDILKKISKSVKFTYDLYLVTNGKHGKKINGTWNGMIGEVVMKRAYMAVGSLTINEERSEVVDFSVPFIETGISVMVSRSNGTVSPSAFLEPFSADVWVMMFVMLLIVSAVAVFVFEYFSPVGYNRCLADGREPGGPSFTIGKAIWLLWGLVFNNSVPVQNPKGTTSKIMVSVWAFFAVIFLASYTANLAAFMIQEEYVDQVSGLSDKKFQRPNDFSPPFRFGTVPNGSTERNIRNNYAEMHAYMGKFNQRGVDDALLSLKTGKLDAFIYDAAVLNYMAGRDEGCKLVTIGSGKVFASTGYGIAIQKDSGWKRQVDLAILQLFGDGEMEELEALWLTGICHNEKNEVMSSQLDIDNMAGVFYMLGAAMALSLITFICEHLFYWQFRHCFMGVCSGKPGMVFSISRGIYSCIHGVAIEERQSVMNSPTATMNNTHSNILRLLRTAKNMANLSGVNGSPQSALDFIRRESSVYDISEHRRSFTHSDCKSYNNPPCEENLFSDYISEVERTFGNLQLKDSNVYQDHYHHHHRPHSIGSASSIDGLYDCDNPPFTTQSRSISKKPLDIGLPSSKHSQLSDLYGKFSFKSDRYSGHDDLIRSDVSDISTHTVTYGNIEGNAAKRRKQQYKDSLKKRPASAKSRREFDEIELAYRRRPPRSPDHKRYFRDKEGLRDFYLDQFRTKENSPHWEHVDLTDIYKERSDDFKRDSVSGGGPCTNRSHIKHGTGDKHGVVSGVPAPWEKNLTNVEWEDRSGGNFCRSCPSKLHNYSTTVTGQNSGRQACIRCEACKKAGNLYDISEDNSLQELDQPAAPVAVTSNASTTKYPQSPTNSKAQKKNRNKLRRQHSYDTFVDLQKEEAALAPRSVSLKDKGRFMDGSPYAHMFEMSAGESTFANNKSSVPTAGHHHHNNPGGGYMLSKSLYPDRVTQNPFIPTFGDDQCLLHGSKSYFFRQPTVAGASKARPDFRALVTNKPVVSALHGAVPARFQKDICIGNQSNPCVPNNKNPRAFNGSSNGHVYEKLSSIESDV
Experimental: (§1) Activation of the NR2A or NR2B subtype of NMDA receptor with glutamate as an agonist and glycine co-agonist on these cells results in calcium influx, which can be monitored with fluorescent indicator Fluo-4.
(§2) For experiments, the cells were seeded onto poly-D-lysine-coated 96-well black plates with clear bottom (Corning) at a density of ˜50,000 cells/well. After overnight culture, the growth medium was removed from the wells and the cells were incubated at 37° C. for 60 min in Hanks buffer containing 4 μM fluo-4-AM (Invitrogen) and 0.1% bovine serum albumin (BSA). After dye-loading, the cells were washed three times with Hanks buffer and incubated for 10 min at room temperature with various concentrations of test compounds prepared in Hanks buffer with 0.1% BSA. The cell plates were placed onto FDSS μCell fluorescence reader (Hamamatsu). After 20 sec reading of background fluorescence, agonist glutamate at final 100 μM and co-agonist glycine at final 50 μM were added to the cells to activate the receptor, and the resulting fluorescence changes were recorded and quantified. Based on the changes in fluorescence intensity, the pharmacological effect of test compounds were analyzed and the IC50 values derived from a non-linear least squares fitting of the concentration-dependent response to a standard logistic equation using Prism (Graphpad, Inc): Amplitude=Max Amplitude/(1+([…])^n).

CYP2D6 = CYP2D6 (Homo sapiens (Human), UniProt P10635); assay: CYP P450 enzyme inhibition in pooled human liver microsome; settings: dextromethorphan 5 μM; for CYP2D6 @ 10 μM: inhibition at 10 μM, pooled HLM; for IC50: CYP2D6 IC50, pooled HLM
Chain of CYP2D6 (P10635 whole entry): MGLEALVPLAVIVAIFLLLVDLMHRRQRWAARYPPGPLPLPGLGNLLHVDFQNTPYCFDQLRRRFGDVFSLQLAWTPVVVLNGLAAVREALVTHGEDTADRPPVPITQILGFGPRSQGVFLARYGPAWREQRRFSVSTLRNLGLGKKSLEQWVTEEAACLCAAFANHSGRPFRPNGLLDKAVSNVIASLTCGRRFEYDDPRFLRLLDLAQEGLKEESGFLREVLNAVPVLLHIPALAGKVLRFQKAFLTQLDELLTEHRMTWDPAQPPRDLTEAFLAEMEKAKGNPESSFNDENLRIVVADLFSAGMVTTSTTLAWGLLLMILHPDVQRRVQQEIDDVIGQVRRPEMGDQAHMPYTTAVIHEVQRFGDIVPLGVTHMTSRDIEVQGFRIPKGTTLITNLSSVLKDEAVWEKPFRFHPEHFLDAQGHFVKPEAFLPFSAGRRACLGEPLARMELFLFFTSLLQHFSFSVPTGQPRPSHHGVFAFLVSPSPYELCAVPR
Experimental: Those CYP isoforms and their corresponding probe substrates are as follows: CYP1A2 (phenacetin, 30 μM), CYP2C9 (tolutamide, 100 μM), CYP2C19 (S-mephenytoin, 40 μM), CYP2D6 (dextromethorphan, 5 μM) and CYP3A4 (midazolam, 1 μM). All probe substrates were used at concentrations near or below their Kms. For experiment, a reaction mixture of test compound at 10 uM or in serial dilution, CYP probe substrate described above and 0.2 mg/mL pooled HLM in phosphate buffer, pH 7.4 in a final volume of 200 μL was pre-incubated at 37° C. for 10 minutes in triplicate. The reaction was initiated by addition of NADPH at final concentration of 1 mM. The reaction was terminated after 10 minutes (CYP1A2, CYP2D6 and CYP3A4) or 30 minutes (CYP2C9 and CYP2C19) by addition of 100 μL ice-cold acetonitrile with internal standard (IS). The samples were then centrifuged at 13,000 rpm and the supernatants were injected to LC-MS/MS (Agilent Technologies) to quantify the concentration of the specific metabolites of the probe substrates formed by individual CYP450 isoforms. The inhibition ratio is calculated as: (Mt−M0)/Mwater×100% in which Mt and M0 represent the concentrations of the specific probe substrate metabolite, which was formed by individual CYP450 isoform, at the beginning and end of the reaction in the presence of test compound; while Mwater represents the concentration of the specific metabolite at the end of the reaction in the absence of test compound. Test compound concentration-dependent response data experiments performed in triplicate.

human NR1/NR2A [1] = target: human NR1/NR2A (Homo sapiens (Human), UniProt Q12879); assay: NR2A antagonist activity, Fluo-4 calcium influx assay in HEK293 cells; assay type: cell-based
Chain of human NR1/NR2A (Homo sapiens (Human), UniProt Q12879) (Q12879 23-1464, other chains not shown): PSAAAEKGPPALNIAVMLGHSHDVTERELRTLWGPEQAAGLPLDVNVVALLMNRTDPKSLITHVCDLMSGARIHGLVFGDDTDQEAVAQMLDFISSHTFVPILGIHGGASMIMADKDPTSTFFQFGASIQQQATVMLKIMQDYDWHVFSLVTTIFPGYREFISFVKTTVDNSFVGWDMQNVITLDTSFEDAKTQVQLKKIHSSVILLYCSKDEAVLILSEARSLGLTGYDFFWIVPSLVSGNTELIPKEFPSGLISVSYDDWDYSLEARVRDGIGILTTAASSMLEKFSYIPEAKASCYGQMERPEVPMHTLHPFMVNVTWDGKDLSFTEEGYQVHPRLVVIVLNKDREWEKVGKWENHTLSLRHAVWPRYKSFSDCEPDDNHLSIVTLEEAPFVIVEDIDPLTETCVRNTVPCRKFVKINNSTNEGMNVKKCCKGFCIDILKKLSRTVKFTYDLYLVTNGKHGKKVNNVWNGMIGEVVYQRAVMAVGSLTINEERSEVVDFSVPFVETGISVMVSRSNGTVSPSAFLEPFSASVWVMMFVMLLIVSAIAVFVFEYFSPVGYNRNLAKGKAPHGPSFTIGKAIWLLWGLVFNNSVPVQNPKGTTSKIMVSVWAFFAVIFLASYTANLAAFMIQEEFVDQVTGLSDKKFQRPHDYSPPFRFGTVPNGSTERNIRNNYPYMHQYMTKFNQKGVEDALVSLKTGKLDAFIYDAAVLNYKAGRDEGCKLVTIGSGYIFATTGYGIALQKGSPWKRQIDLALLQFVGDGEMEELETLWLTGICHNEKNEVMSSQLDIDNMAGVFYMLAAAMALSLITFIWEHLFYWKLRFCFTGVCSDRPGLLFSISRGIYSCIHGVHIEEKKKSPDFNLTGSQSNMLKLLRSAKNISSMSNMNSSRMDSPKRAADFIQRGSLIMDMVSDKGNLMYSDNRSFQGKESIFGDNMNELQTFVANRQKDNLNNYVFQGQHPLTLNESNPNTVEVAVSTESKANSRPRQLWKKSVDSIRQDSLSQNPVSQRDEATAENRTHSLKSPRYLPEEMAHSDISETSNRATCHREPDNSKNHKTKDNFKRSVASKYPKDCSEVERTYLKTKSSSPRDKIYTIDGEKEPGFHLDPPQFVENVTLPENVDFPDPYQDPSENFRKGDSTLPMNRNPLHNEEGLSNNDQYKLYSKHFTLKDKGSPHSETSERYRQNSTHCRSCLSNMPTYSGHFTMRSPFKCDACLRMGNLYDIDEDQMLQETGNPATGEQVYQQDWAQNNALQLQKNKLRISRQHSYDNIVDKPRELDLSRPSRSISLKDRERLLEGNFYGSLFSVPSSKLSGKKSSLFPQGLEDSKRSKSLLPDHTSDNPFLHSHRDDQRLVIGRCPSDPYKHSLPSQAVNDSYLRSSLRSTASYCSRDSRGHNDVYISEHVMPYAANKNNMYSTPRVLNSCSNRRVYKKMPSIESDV
Experimental: as §1, §2

human NR1/NR2A [2] = target: human NR1/NR2A (Homo sapiens (Human), UniProt Q05586+Q12879); assay: as above; assay type: cell-based
Chain of human NR1/NR2A (Homo sapiens (Human), UniProt Q05586+Q12879) (Q12879 23-1464, other chains not shown): as above
Experimental: as §1, §2

[3] = hNR2B IC50, HEK293 cells expressing NR1/NR2B
[4] = read-out: hNR2A IC50; HEK293 cells expressing NR1/NR2A; glutamate 100 μM, glycine 50 μM
[5] = HEK293 cells expressing NR1/NR2B, read-out: hNR2B IC50
[6] = HEK293 cells expressing NR1/NR2A, glutamate 100 μM, glycine 50 μM, read-out: hNR2A IC50

Molecule | hERG @ 10 μM (hERG channel) | IC50 (human NR1/NR2B; [3]) | CYP2D6 @ 10 μM (CYP2D6) | IC50 (human NR1/NR2A [2]) | further results
FC1(F)CN(CCc2ccc(Cl)cc2)CCC1Nc1ncnc2[nH]ncc12 (single isomer, unassigned) [E2-1.3, (S*)-N-(1-(4-chlorophenethyl)-3,3-difluoropiperidin-4-yl)-1H-pyrazolo[3,4-d]pyrimidin-4-amine] | 64% | 0.0317 µM | 27.6% | – | IC50 (human NR1/NR2A [1]; [4]): > 10 µM
FC(F)(F)Oc1ccc(CCN2CCC(Nc3ncnc4[nH]ncc34)C(F)(F)C2)cc1 (single isomer, unassigned) [E1-1.11, (R*)-N-(3,3-difluoro-1-(4-(trifluoromethoxy)phenethyl)piperidin-4-yl)-1H-pyrazolo[3,4-d]pyrimidin-4-amine] | – | – | – | > 10 µM | –
FC(F)(F)c1ccc(CCN2CCC(Nc3ncnc4[nH]ncc34)C(F)(F)C2)cc1 (single isomer, unassigned; (+)) [E1-1.5, (+)-(R*)-N-(3,3-difluoro-1-(4-(trifluoromethyl)phenethyl)piperidin-4-yl)-1H-pyrazolo[3,4-d]pyrimidin-4-amine] | – | – | 27.6% | > 10 µM | IC50 (hERG channel; hERG IC50): 9.8 µM; IC50 (CYP2D6): 34.1 µM
FC(F)c1ccc(CCN2CCC(Nc3ncnc4[nH]ncc34)C(F)(F)C2)cc1 (single isomer, unassigned) [E2-1.6, (S*)-N-(1-(4-(difluoromethyl)phenethyl)-3,3-difluoropiperidin-4-yl)-1H-pyrazolo-[3,4-d]-pyrimidin-4-amine] | 70% | – | 37.1% | – | IC50 (human NR1/NR2A [1]; [4]): > 10 µM
Cc1ccc(CCN2CCC(Nc3ncnc4[nH]ncc34)C(F)(F)C2)cc1 (single isomer, unassigned) [E1-1.4, (R*)-N-(3,3-difluoro-1-(4-methylphenethyl)piperidin-4-yl)-1H-pyrazolo[3,4-d]-pyrimidin-4-amine] | – | 0.0185 µM | – | > 10 µM | –
Cc1n[nH]c2ncnc(NC3CCN(CCc4ccc(C(F)(F)F)cc4)CC3(F)F)c12 (racemic) [C-1.34, (±)-N-(3,3-difluoro-1-(4-(trifluoromethyl)phenethyl)piperidin-4-yl)-3-methyl-1H-pyrazolo[3,4-d]pyrimidin-4-amine] | 68% | – | – | > 10 µM | –
FC(F)Oc1ccc(CCN2CCC(Nc3ncnc4[nH]ncc34)C(F)(F)C2)cc1 (single isomer, unassigned) [E1-1.12, (R*)-N-(1-(4-(difluoromethoxy)phenethyl)-3,3-difluoropiperidin-4-yl)-1H-pyrazolo[3,4-d]pyrimidin-4-amine] | 79% | 0.0838 µM | – | > 10 µM | –
Fc1cc(Cl)ccc1CCN1CCC(Nc2ncnc3[nH]ncc23)C(F)(F)C1 (single isomer, unassigned) [E1-1.16, (R*)-N-(1-(4-chloro-2-fluorophenethyl)-3,3-difluoropiperidin-4-yl)-1H-pyrazolo-[3,4-d]pyrimidin-4-amine] | 47% | 0.0279 µM | 23.2% | > 10 µM | –
Cc1ccc(CCN2CCC(Nc3ncnc4[nH]ncc34)C(F)(F)C2)cn1 (racemic) [C-3.4, (±)-N-(3,3-difluoro-1-(2-(6-methylpyridin-3-yl)ethyl)piperidin-4-yl)-1H-pyrazolo[3,4-d]pyrimidin-4-amine] | 18% | 2.27 µM | – | > 10 µM | –
FC(F)(F)c1cccc(CCN2CCC(Nc3ncnc4[nH]ncc34)C(F)(F)C2)c1 (racemic) [C-1.36] | 56% | – | 27.9% | > 10 µM | –
Cc1ccc(CCN2CCC(Nc3ncnc4[nH]ncc34)C(F)(F)C2)cc1 (single isomer, unassigned) [E2-1.4, (S*)-N-(3,3-difluoro-1-(4-methylphenethyl)piperidin-4-yl)-1H-pyrazolo[3,4-d]-pyrimidin-4-amine] | – | 0.0219 µM | – | – | IC50 (human NR1/NR2A [1]; [4]): > 10 µM
FC(F)(F)c1ccc(CCN2CCC(Nc3ncnc4[nH]ccc34)C(F)(F)C2)cc1 (racemic) [C-2.5, (±)-N-(3,3-difluoro-1-(4-(trifluoromethyl)phenethyl)piperidin-4-yl)-7H-pyrrolo-[2,3-d]pyrimidin-4-amine] | 60% | – | – | – | IC50 (human NR1/NR2B; [5]): 0.105 µM; IC50 (human NR1/NR2A [2]; [6]): > 10 µM
FC(F)(F)c1ccc(CCN2CCC(Nc3ncnc4[nH]ccc34)C(F)(F)C2)cn1 (racemic) [C-4.5, (±)-N-(3,3-difluoro-1-(2-(6-(trifluoromethyl)pyridin-3-yl)ethyl)piperidin-4-yl)-7H-pyrrolo[2,3-d]pyrimidin-4-amine] | 24% | – | – | – | IC50 (human NR1/NR2B; [5]): 1.74 µM; IC50 (human NR1/NR2A [2]; [6]): > 10 µM
(±)-N-(1-(3,4-difluorophenethyl)-3,3-difluoropiperidin-4-yl)-1H-pyrazolo-[3,4-d]-pyrimidin-4-amine [C-1.15] | 37% | – | – | – | IC50 (human NR1/NR2B; [5]): 0.0789 µM; IC50 (human NR1/NR2A [1]; HEK293 cells expressing NR1/NR2A; glutamate 100 μM, glycine 50 μM; read-out: hNR2A IC50): > 10 µM
FC(F)(F)c1ccc(CCN2CCC(Nc3ncnc4[nH]ncc34)C(F)(F)C2)cn1 (racemic) [C-3.5, (±)-N-(3,3-difluoro-1-(2-(6-(trifluoromethyl)pyridin-3-yl)ethyl)piperidin-4-yl)-1H-pyrazolo[3,4-d]pyrimidin-4-amine] | 23% | – | – | – | IC50 (human NR1/NR2B; [5]): 0.822 µM; IC50 (human NR1/NR2A [2]; [6]): > 10 µM
FCc1ccc(CCN2CCC(Nc3ncnc4[nH]ncc34)C(F)(F)C2)cc1 (single isomer, unassigned) [E2-1.7, (S*)-N-(3,3-difluoro-1-(4-(fluoromethyl)phenethyl)piperidin-4-yl)-1H-pyrazolo-[3,4-d]-pyrimidin-4-amine] | 49% | 0.0381 µM | – | – | IC50 (human NR1/NR2A [1]; [4]): > 10 µM
Fc1cc(Cl)ccc1CCN1CCC(Nc2ncnc3[nH]ncc23)C(F)(F)C1 (single isomer, unassigned) [E2-1.16, (S*)-N-(1-(4-chloro-2-fluorophenethyl)-3,3-difluoropiperidin-4-yl)-1H-pyrazolo-[3,4-d]pyrimidin-4-amine] | 64% | 0.0619 µM | – | – | IC50 (human NR1/NR2A [1]; [4]): > 10 µM
FC1(F)CN(CCc2ccc(Cl)cc2)CCC1Nc1ncnc2[nH]ncc12 (single isomer, unassigned) [E1-1.3, (R*)-N-(1-(4-chlorophenethyl)-3,3-difluoropiperidin-4-yl)-1H-pyrazolo[3,4-d]-pyrimidin-4-amine] | 58% | 0.025 µM | 21.5% | > 10 µM | –
Fc1ccc(CCN2CCC(Nc3ncnc4[nH]ncc34)C(F)(F)C2)cc1 (racemic) [C-1.2, (±)-N-(3,3-difluoro-1-(4-fluorophenethyl)piperidin-4-yl)-1H-pyrazolo[3,4-d]-pyrimidin-4-amine] | – | 0.0683 µM | 45.1% | > 10 µM | IC50 (hERG channel): 16.3 µM
Fc1ccc(F)c(CCN2CCC(Nc3ncnc4[nH]ncc34)C(F)(F)C2)c1 (racemic) [C-1.35, (±)-N-(1-(2,5-difluorophenethyl)-3,3-difluoropiperidin-4-yl)-1H-pyrazolo[3,4-d]-pyrimidin-4-amine] | 17% | 0.329 µM | – | > 10 µM | –
FC1(F)CN(CCc2ccccc2)CCC1Nc1ncnc2[nH]ncc12 (racemic) [C-1.1, (±)-N-(3,3-difluoro-1-phenethylpiperidin-4-yl)-1H-pyrazolo[3,4-d]pyrimidin-4-amine] | – | 0.0988 µM | – | > 10 µM | IC50 (hERG channel): 71 µM
FC(F)c1ccc(CCN2CCC(Nc3ncnc4[nH]ncc34)C(F)(F)C2)cc1 (single isomer, unassigned) [E1-1.6, (R*)-N-(1-(4-(difluoromethyl)phenethyl)-3,3-difluoropiperidin-4-yl)-1H-pyrazolo-[3,4-d]pyrimidin-4-amine] | 63% | – | 24.4% | > 10 µM | IC50 (hERG channel; hERG IC50): 3.5 µM
FC(F)(F)c1ccc(C(F)(F)CN2CCC(Nc3ncnc4[nH]ncc34)CC2)cc1 [LX-1, reference compound] | – | – | 93% | – | –
FC(F)(F)c1ccc(CCN2CCC(Nc3ncnc4[nH]ncc34)C(F)(F)C2)cc1 (single isomer, unassigned; (-)) [E2-1.5, (−)-(S*)-N-(3,3-difluoro-1-(4-(trifluoromethyl)phenethyl)piperidin-4-yl)-1H-pyrazolo[3,4-d]pyrimidin-4-amine] | – | – | 37.9% | – | IC50 (hERG channel; hERG IC50): 7.6 µM; IC50 (CYP2D6): 15.2 µM; IC50 (human NR1/NR2A [1]; [4]): > 10 µM
FCc1ccc(CCN2CCC(Nc3ncnc4[nH]ncc34)C(F)(F)C2)cc1 (single isomer, unassigned) [E1-1.7, (R*)-N-(3,3-difluoro-1-(4-(fluoromethyl)phenethyl)piperidin-4-yl)-1H-pyrazolo[3,4-d]-pyrimidin-4-amine] | 36% | 0.0224 µM | 23.2% | > 10 µM | –
